Experimental data: patent publication US20090054304A1, “HETEROCYCLIC MODULATORS OF TGR5 FOR TREATMENT OF DISEASE” (KALYPSYS, INC., priority 2007, published 2009)
pEC50: −log10 of the molar value.

Biological target: T1, human TGR5 (Homo sapiens, UniProt Q8TDU6)
T1 construct: expressed in transfected cells
T1 sequence (Q8TDU6 1-330): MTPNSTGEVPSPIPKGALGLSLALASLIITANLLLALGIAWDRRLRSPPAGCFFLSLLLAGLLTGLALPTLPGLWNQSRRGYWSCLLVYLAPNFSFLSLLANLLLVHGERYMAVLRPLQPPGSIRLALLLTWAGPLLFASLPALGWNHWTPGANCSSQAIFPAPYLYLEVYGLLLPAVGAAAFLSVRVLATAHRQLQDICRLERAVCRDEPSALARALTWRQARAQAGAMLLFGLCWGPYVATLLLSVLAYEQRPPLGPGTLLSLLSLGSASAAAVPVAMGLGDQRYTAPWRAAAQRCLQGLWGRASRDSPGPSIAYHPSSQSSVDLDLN
Assay: cAMP production assay in HEK293 cells stably expressing TGR5 (LANCE TR-FRET)
Format: cell-based
Conditions: 30 minutes stimulation, 1 mM IBMX, read-out: cAMP Production in 293-TGR5 Cells
Description: HEK293 cells stably expressing TGR5 (HEK293-TGR5) were established by stably transfecting HEK-293 cells with an expression vector (pcDNA 3.1, Invetrogen) inserted with human TGR5 cDNA using Fugene6 (Roche, Indianapolis, Ind.) according to conventional methods. Cells were grown in DMEM (invitrogen, Carlsbad, Calif.) supplemented with 10% FBS, 1% penicillin/streptomycin under geneticin selection. The presence of TGR5 transcripts in these cells was confirmed using branched DNA (bDNA, Genospectra, Inc., Fremont Calif.) following the manufacturer's protocol and using specific probes for human TGR5. cAMP production assay was performed in high throughput 1536 well format using LANCE cAMP detection kit (Perkin Elmer Inc., Boston, Mass.) according to the manufacturer's protocol. Briefly, HEK293-TGR5 cells were harvested using non-enzymatic cell dissociation buffer (Invitrogen, Carlsbad, Calif.) and suspended in DMEM supplemented with 0.1% FBS at a density of 800,000 cells/ml. Alexa antibody was added to the cell suspension, and 4 ul of the mixture was dispensed in white opaque tissue culture treated Greiner 1536 well plates (USA Scientific, Inc., Ocala, Fla.). After an overnight incubation at 37C in an atmosphere of 10% CO2 and 95% humidity, 1 ul of 5 mM IBMX (Sigma, St. Louis, Mo.) solution in DMEM was dispensed for a final concentration of 1 mM. Cells were then stimulated with test compounds for 30 minutes, after which time 5 ul of detection reagent was added and incubated for 1-7 hrs at room temperature. TR-FRET signal was detected using the Viewlux (Perkin Elmer Inc., Boston Mass.). EC50 values were determined using Graph Pad Prizm analysis (GraphPad Software, Inc). The EC50 values for a wide range of bile acids generated from this assay were in agreement with the values published in the scientific literature. […] The symbol (+) denotes an EC50 value of ≦10 μM while the symbol (−) denotes an EC50 value of >10 μM (see Table 1).

pEC50	SMILES
< 5.00	O=c1cc2nc(-c3ccsc3)c(CNCCc3ccc(Br)cc3)cc2c[nH]1 [Example 10, 3-((4-bromophenethylamino)methyl)-2-(thiophen-3-yl)-1,6-naphthyridin-7(6H)-one]
≥ 5.00	FC(F)(F)c1ccc(CNCc2cc3ccsc3nc2-c2ccsc2)cc1 [Example 7, 1-(6-(thiophen-3-yl)thieno[2,3-b]pyridin-5-yl)-N-(4-(trifluoromethyl)benzyl)methanamine]
≥ 5.00	CC(C)n1ncc2cc(CNCCc3ccc(Br)cc3)c(-c3ccsc3)nc21 [Example 2, 2-(4-Bromophenyl)-N-((1-isopropyl-6-(thiophen-3-yl)-1H-pyrazolo[3,4-b]pyridin-5-yl)methyl)ethanamine]
≥ 5.00	Brc1ccc(CCNCc2cc3ccncc3nc2-c2ccsc2)cc1 [Example 8, 2-(4-bromophenyl)-N-((2-(thiophen-3-yl)-1,7-naphthyridin-3-yl)methyl)ethanamine]
≥ 5.00	Brc1ccc(CCNCc2cc3ccsc3nc2-c2ccsc2)cc1 [Example 6, 2-(4-bromophenyl)-N-((6-(thiophen-3-yl)thieno[2,3-b]pyridin-5-yl)methyl)ethanamine]
≥ 5.00	Brc1ccc(CCNCc2cc3sccc3nc2-c2ccsc2)cc1 [Example 5, 2-(4-bromophenyl)-N-((5-(thiophen-3-yl)thieno[3,2-b]pyridin-6-yl)methyl)ethanamine]

Continued, molecule first:

SMILES	pEC50
Cc1nn(C)c2nc(-c3ccsc3)c(CNCc3ccc(C(F)(F)F)cc3)cc12 [Example 4, 1-(1,3-dimethyl-6-(thiophen-3-yl)-1H-pyrazolo[3,4-b]pyridin-5-yl)-N-(4-(trifluoromethyl)benzyl)methanamine]	< 5.00
COc1ccc2cc(CNCCc3ccc(Br)cc3)c(-c3ccsc3)nc2n1 [Example 11, 2-(4-bromophenyl)-N-((7-methoxy-2-(thiophen-3-yl)-1,8-naphthyridin-3-yl)methyl)ethanamine]	≥ 5.00
O=c1ccc2cc(CNCCc3ccc(Br)cc3)c(-c3ccsc3)nc2[nH]1 [Example 12, 6-((4-bromophenethylamino)methyl)-7-(thiophen-3-yl)-1,8-naphthyridin-2(1H)-one]	≥ 5.00
CC(C)n1ncc2cc(CNCc3ccc(C(F)(F)F)cc3)c(-c3ccsc3)nc21 [Example 1, 1-(1-isopropyl-6-(thiophen-3-yl)-1H-pyrazolo[3,4-b]pyridin-5-yl)-N-(4-(trifluoromethyl)benzyl)methanamine]	≥ 5.00
COc1cc2nc(-c3ccsc3)c(CNCCc3ccc(Br)cc3)cc2cn1 [Example 9, 2-(4-bromophenyl)-N-((7-methoxy-2-(thiophen-3-yl)-1,6-naphthyridin-3-yl)methyl)ethanamine]	≥ 5.00
Cc1nn(C)c2nc(-c3ccsc3)c(CNCCc3ccc(Br)cc3)cc12 [Example 3, 2-(4-bromophenyl)-N-((1,3-dimethyl-6-(thiophen-3-yl)-1H-pyrazolo[3,4-b]pyridin-5-yl)methyl)ethanamine]	≥ 5.00
